Literature values in patent publication US20080300304A1, “Ginger Fraction For Inhibiting Human Cyp Enzymes” (priority 2005, published 2008).

Going from `CC(C)c1c(C(=O)Nc2ccccc2)c(-c2ccccc2)c(-c2ccc(F)cc2)n1CC[C@@H](O)C[C@@H](O)CC(=O)O` [atorvastatin] to `CC(=O)O[C@@]12CO[C@@H]1C[C@H](O)[C@@]1(C)C(=O)[C@H](O)C3=C(C)[C@@H](OC(=O)[C@H](O)[C@@H](NC(=O)OC(C)(C)C)c4ccccc4)C[C@@](O)([C@@H](OC(=O)c4ccccc4)[C@H]21)C3(C)C` [docetaxel], the “oral availability [%]” value falls from 12% to 8%.

First: COc1cc(N)c(Cl)cc1C(=O)NC1CCN(CCCOc2ccc(F)cc2)CC1OC (stereo not drawn) [cisapride]
Second: CCOC(=O)C1=C(C)NC(C)=C(C(=O)OC)C1c1cccc(Cl)c1Cl (stereo not drawn) [felodipine]
The “oral availability [%]” value of the first is higher: 38% for the first, 15% for the second.

First: CC[C@H](C)C(=O)O[C@H]1C[C@@H](C)C=C2C=C[C@H](C)[C@H](CC[C@@H]3C[C@@H](O)CC(=O)O3)[C@H]21 [lovastatin]
Second: C=CC[C@@H]1/C=C(\C)C[C@H](C)C[C@H](OC)[C@H]2O[C@@](O)(C(=O)C(=O)N3CCCC[C@H]3C(=O)O[C@H](/C(C)=C/[C@@H]3CC[C@@H](O)[C@H](OC)C3)[C@H](C)[C@@H](O)CC1=O)[C@H](C)C[C@@H]2OC [tacrolimus]
The “oral availability [%]” value of the first is lower: 4% for the first, 16% for the second.

Compared with `CO[C@H]1/C=C/O[C@@]2(C)Oc3c(C)c(O)c4c(c3C2=O)C2=NC3(CCN(CC(C)C)CC3)NC2=C(NC(=O)/C(C)=C\C=C\[C@H](C)[C@H](O)[C@@H](C)[C@@H](O)[C@@H](C)[C@H](OC(C)=O)[C@@H]1C)C4=O` [rifabutin], `CO[C@H]1C[C@@H]2CC[C@@H](C)[C@@](O)(O2)C(=O)C(=O)N2CCCC[C@H]2C(=O)O[C@H]([C@H](C)C[C@@H]2CC[C@@H](O)[C@H](OC)C2)CC(=O)[C@H](C)/C=C(\C)[C@@H](O)[C@@H](OC)C(=O)[C@H](C)C[C@H](C)/C=C/C=C/C=C/1C` [sirolimus] is lower in “oral availability [%]” value: 20% for the first, 15% for the second.

For `C/C=C/C[C@@H](C)C(=O)[C@H]1C(=O)N[C@@H](C(C)C)C(=O)N(C)CC(=O)N(C)[C@@H](CC(C)C)C(=O)N[C@@H](C(C)C)C(=O)N(C)[C@@H](CC(C)C)C(=O)N[C@@H](C)C(=O)N[C@H](C)C(=O)N(C)[C@@H](CC(C)C)C(=O)N(C)[C@@H](CC(C)C)C(=O)N(C)[C@@H](C(C)C)C(=O)N1C` [valspodar], the “oral availability [%]” value is listed as 34%.
